Test results as given in ChEMBL document CHEMBL1781926, “Synthesis of 1-naphtylpiperazine derivatives as serotoninergic ligands and their evaluation as antiproliferative agents” (Eur J Med Chem, 2011).
Calls of active or inactive are those of the source. No cut-off for these calls is given here.

Columns and labels:
[1] = target: T1, 5-hydroxytryptamine receptor 2C (Rattus norvegicus, UniProt P08909); test: Displacement of [3H]mesulergine from 5HT2C receptor in Sprague-Dawley rat frontal cortical homogenates after 15 mins
T1 sequence (P08909 whole entry): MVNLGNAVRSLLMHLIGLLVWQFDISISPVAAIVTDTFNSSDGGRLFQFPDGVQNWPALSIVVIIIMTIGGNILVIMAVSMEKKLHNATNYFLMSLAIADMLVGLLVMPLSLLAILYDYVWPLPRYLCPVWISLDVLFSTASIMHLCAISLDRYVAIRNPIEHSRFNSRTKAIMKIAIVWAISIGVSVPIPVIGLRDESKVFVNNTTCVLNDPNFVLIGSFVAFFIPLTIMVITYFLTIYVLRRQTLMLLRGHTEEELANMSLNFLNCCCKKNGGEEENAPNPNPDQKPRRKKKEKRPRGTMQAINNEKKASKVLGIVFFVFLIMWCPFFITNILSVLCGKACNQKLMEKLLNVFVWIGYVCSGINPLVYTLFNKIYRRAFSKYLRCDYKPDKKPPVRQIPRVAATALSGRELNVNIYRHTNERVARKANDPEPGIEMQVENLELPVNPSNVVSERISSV

[2] = target: D(2) dopamine receptor (Rattus norvegicus, UniProt P61169); test: Displacement of [3H]spiperone from dopamine D2 receptor in rat corpora striatum homogenates after 15 mins by liquid scintillation counting
[3] = target: D(1A) dopamine receptor (Rattus norvegicus, UniProt P18901); test: Displacement of [3H]SCH 23390 from dopamine D1 receptor in rat corpora striatum homogenates after 15 mins by liquid scintillation counting
[4] = target: T2, Adrenergic receptor alpha-2 (Rattus norvegicus, UniProt P22086+P19328+P22909); test: Displacement [3H]yohimbine from alpha 2 adrenergic receptor in rat brain cortex homogenates after 30 mins by liquid scintillation counting; format: tissue-based
T2 sequence (P22086 whole entry): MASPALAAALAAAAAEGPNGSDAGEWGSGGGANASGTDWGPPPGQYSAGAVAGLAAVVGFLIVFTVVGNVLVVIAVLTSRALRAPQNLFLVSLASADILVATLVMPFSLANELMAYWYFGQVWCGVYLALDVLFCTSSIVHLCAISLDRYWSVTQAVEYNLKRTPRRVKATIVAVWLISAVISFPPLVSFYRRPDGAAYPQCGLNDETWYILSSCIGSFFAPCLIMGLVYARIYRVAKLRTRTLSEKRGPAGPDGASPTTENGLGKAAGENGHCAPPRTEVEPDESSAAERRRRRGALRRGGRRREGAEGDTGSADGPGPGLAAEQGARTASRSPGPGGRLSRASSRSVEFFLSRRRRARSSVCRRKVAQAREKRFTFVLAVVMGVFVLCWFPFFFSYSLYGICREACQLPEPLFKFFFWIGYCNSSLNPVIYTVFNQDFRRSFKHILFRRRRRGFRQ
T2 sequence (P19328 whole entry): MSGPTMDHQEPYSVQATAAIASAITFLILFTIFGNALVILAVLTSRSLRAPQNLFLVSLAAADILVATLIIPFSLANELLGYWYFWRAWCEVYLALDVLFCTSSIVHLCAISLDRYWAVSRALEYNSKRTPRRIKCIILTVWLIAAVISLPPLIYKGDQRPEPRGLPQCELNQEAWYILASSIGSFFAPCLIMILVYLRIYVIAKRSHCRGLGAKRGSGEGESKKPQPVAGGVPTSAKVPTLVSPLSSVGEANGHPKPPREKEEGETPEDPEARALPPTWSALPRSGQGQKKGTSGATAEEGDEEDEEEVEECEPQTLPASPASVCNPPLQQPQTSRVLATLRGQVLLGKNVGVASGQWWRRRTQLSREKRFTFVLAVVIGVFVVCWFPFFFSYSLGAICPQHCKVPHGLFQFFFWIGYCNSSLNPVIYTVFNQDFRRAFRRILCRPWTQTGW
T2 sequence (P22909 whole entry): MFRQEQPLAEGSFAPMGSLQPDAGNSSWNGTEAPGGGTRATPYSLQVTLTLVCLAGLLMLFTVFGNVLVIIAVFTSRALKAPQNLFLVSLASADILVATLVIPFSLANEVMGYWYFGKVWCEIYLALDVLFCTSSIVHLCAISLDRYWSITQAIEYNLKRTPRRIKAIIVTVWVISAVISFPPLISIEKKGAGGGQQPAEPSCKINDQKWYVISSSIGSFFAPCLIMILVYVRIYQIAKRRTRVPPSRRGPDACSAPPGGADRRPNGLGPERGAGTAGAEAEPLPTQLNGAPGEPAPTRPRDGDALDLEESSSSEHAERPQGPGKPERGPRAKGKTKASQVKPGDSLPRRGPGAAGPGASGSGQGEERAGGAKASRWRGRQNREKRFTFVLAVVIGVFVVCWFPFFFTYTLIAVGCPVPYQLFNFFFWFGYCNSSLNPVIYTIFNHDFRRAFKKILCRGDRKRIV

[5] = target: 5-hydroxytryptamine receptor 2A (Rattus norvegicus, UniProt P14842); test: Displacement of [3H]Ketanserin from 5HT2A receptor in Sprague-Dawley rat frontal cortical homogenates after 15 mins
[6] = tested on: PC-3; test: Antiproliferative activity against human PC3 cells assessed as growth inhibition after 96 hrs by SRB assay; format: functional, cell-based; conditions: for IC50: PC-3, 96 h

Chain of D(2) dopamine receptor (P61169 whole entry): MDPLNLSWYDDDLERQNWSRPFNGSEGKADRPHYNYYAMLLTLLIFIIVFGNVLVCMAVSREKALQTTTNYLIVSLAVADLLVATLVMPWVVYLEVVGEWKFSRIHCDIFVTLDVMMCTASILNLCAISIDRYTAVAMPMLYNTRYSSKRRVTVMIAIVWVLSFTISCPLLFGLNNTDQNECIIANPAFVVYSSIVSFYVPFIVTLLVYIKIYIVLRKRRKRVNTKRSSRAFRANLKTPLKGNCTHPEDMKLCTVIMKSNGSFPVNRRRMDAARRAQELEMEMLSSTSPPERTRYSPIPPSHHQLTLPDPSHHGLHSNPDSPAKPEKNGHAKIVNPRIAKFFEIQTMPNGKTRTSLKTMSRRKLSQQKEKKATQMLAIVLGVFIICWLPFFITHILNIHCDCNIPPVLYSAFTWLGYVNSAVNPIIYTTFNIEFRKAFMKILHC
Chain of 5-hydroxytryptamine receptor 2A (P14842 whole entry): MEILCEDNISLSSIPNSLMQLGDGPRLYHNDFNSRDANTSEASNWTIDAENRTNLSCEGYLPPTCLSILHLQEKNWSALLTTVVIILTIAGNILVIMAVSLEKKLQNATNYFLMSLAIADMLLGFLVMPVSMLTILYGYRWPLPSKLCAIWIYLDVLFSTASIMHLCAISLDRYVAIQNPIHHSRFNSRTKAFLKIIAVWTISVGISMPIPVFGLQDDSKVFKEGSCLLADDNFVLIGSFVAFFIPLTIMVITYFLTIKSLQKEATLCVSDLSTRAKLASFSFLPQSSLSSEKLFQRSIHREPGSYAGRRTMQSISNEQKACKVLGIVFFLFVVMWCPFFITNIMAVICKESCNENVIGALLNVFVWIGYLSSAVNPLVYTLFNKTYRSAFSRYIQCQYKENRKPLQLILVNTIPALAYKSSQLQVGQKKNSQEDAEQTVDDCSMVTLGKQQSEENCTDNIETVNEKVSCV
Chain of D(1A) dopamine receptor (P18901 whole entry): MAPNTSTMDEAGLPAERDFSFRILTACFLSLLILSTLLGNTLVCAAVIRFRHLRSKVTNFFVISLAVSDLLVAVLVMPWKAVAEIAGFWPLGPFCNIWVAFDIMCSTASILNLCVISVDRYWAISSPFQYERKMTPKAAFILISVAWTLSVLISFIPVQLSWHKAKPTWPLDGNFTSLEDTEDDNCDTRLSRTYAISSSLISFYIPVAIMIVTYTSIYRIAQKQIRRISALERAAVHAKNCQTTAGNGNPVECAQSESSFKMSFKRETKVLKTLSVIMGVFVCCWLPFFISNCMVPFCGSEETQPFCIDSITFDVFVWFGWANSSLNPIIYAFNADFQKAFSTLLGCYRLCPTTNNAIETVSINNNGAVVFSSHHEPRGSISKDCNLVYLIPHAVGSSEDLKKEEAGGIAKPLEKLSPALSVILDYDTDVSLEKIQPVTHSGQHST

Structure (SMILES)	Ki ([1]; read-out: Ki)	Ki [2]	Ki [3]	Ki [4]	Ki [5]	IC50 [6]	Ki [1]	growth inhibition (GI) [6]
O=C1C2C3C=CC(C3)C2C(=O)N1OCCN1CCN(c2cccc3ccccc23)CC1 (stereo not given)	–	> 10 µM	> 10 µM	1.2 µM	0.113 µM	47.7 µM	Not Active	–
O=C1C2C3C=CC(C3)C2C(=O)N1OCCCN1CCN(c2cccc3ccccc23)CC1 (stereo not given)	–	0.263 µM	> 10 µM	0.189 µM	0.0918 µM	13 µM	Not Active	Dose-dependent effect
O=c1c2ccccc2nnn1OCCN1CCN(c2cccc3ccccc23)CC1	–	> 10 µM	> 10 µM	> 10 µM	1.32 µM	–	Not Active	inactive
O=c1c2ccccc2nnn1CCN1CCN(c2cccc3ccccc23)CC1	> 10 µM	> 10 µM	> 10 µM	1.88 µM	0.00529 µM	10.6 µM	–	Dose-dependent effect

Further lines, with some results ahead:

Ki ([1]; read-out: Ki)	Ki [2]	Ki [3]	Ki [4]	Ki [5]	IC50 [6]	Ki [1]	Structure (SMILES)	growth inhibition (GI) [6]
> 10 µM	> 10 µM	> 10 µM	3.6 µM	0.127 µM	10.5 µM	–	O=c1c2ccccc2nnn1CCCN1CCN(c2cccc3ccccc23)CC1	Dose-dependent effect
–	> 10 µM	> 10 µM	> 10 µM	0.224 µM	23.8 µM	Not Active	N#C/N=C(\NCCCN1CCN(c2cccc3ccccc23)CC1)c1ccccn1	–
–	0.0854 µM	> 10 µM	> 10 µM	0.721 µM	12.3 µM	Not Active	O=c1c2ccccc2nnn1OCCCN1CCN(c2cccc3ccccc23)CC1	–
